# Test results reported in PubChem BioAssay (NCI).
#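 All cell lines were grown in 96-well plates and treated with compound for 48 hours. At the GI50, growth is halved. At the TGI there is no net growth.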
# Tests used:
# Assay in all cases: DTP human tumour cell line panel, 48 h
# COLO 205 colon = tested on: COLO 205 colon
# NCI-H226 lung = tested on: NCI-H226 lung
# NCI-H460 lung = tested on: NCI-H460 lung
# SK-MEL-2 melanoma = tested on: SK-MEL-2 melanoma
# EKVX NSCLC = tested on: EKVX NSCLC
# SF-295 CNS = tested on: SF-295 CNS
# 786-0 renal = tested on: 786-0 renal
# SR leukemia = tested on: SR leukemia
# SNB-19 CNS = tested on: SNB-19 CNS
# A498 renal = tested on: A498 renal
# MCF7 breast = tested on: MCF7 breast
# MDA-MB-435 = tested on: MDA-MB-435
# SF-268 CNS = tested on: SF-268 CNS
# OVCAR-3 ovarian = tested on: OVCAR-3 ovarian
# TK-10 renal = tested on: TK-10 renal
# PC-3 prostate = tested on: PC-3 prostate
# ACHN renal = tested on: ACHN renal
# IGROV1 ovarian = tested on: IGROV1 ovarian
# HS 578T breast = tested on: HS 578T breast
# MDA-MB-231 breast = tested on: MDA-MB-231 breast
# HCT-15 colon = tested on: HCT-15 colon
# CAKI-1 renal = tested on: CAKI-1 renal
# UACC-62 melanoma = tested on: UACC-62 melanoma
# RPMI-8226 leukemia = tested on: RPMI-8226 leukemia
# HOP-62 NSCLC = tested on: HOP-62 NSCLC
# SK-MEL-5 melanoma = tested on: SK-MEL-5 melanoma
# RXF 393 renal = tested on: RXF 393 renal
# BT-549 breast = tested on: BT-549 breast
# HT29 colon = tested on: HT29 colon
# CCRF-CEM leukemia = tested on: CCRF-CEM leukemia
# OVCAR-8 ovarian = tested on: OVCAR-8 ovarian
# MOLT-4 leukemia = tested on: MOLT-4 leukemia
# LOX IMVI melanoma = tested on: LOX IMVI melanoma
# M14 melanoma = tested on: M14 melanoma
# A549 NSCLC = tested on: A549 NSCLC
# UACC-257 melanoma = tested on: UACC-257 melanoma
# KM12 colon = tested on: KM12 colon
# K-562 leukemia = tested on: K-562 leukemia
# SW-620 colon = tested on: SW-620 colon
# NCI-H522 lung = tested on: NCI-H522 lung
# UO-31 renal = tested on: UO-31 renal
# U251 CNS = tested on: U251 CNS
# SN12C renal = tested on: SN12C renal
# SK-MEL-28 melanoma = tested on: SK-MEL-28 melanoma
# OVCAR-4 ovarian = tested on: OVCAR-4 ovarian
# T-47D breast = tested on: T-47D breast
# SNB-75 CNS = tested on: SNB-75 CNS
# HOP-92 NSCLC = tested on: HOP-92 NSCLC
# MALME-3M melanoma = tested on: MALME-3M melanoma
# SK-OV-3 ovarian = tested on: SK-OV-3 ovarian
# NCI/ADR-RES ovarian = tested on: NCI/ADR-RES ovarian
# OVCAR-5 ovarian = tested on: OVCAR-5 ovarian
# HCT-116 colon = tested on: HCT-116 colon
# NCI-H23 lung = tested on: NCI-H23 lung
# HCC-2998 colon = tested on: HCC-2998 colon
# SF-539 CNS = tested on: SF-539 CNS
# DU-145 prostate = tested on: DU-145 prostate
smiles,measurement,setting,value
COC(=O)c1oc2c(O)c(OC)c(Br)cc2c1C,GI50,COLO 205 colon,22.5 µM
same,TGI,COLO 205 colon,48.3 µM
same,GI50,NCI-H226 lung,29 µM
same,TGI,NCI-H226 lung,50.2 µM
same,GI50,NCI-H460 lung,64 µM
same,TGI,NCI-H460 lung,> 100 µM
same,GI50,SK-MEL-2 melanoma,56.2 µM
same,TGI,SK-MEL-2 melanoma,> 100 µM
same,GI50,EKVX NSCLC,23.8 µM
same,TGI,EKVX NSCLC,49.1 µM
same,GI50,SF-295 CNS,31 µM
same,TGI,SF-295 CNS,70.2 µM
same,GI50,786-0 renal,18.2 µM
same,TGI,786-0 renal,32.4 µM
same,GI50,SR leukemia,0.354 µM
same,TGI,SR leukemia,18.2 µM
same,GI50,SNB-19 CNS,22.9 µM
same,TGI,SNB-19 CNS,46.1 µM
same,GI50,A498 renal,32.7 µM
same,TGI,A498 renal,65.8 µM
same,GI50,MCF7 breast,27.1 µM
same,TGI,MCF7 breast,> 100 µM
same,GI50,MDA-MB-435,29 µM
same,TGI,MDA-MB-435,65.4 µM
same,GI50,SF-268 CNS,31 µM
same,TGI,SF-268 CNS,> 100 µM
same,GI50,OVCAR-3 ovarian,23.6 µM
same,TGI,OVCAR-3 ovarian,43.5 µM
same,GI50,TK-10 renal,18.3 µM
same,TGI,TK-10 renal,40 µM
same,GI50,PC-3 prostate,21.2 µM
same,TGI,PC-3 prostate,39.7 µM
same,GI50,ACHN renal,20.2 µM
same,TGI,ACHN renal,36.2 µM
same,GI50,IGROV1 ovarian,32.7 µM
same,TGI,IGROV1 ovarian,91.6 µM
same,GI50,HS 578T breast,33.7 µM
same,TGI,HS 578T breast,> 100 µM
same,GI50,MDA-MB-231 breast,16.5 µM
same,TGI,MDA-MB-231 breast,37 µM
same,GI50,HCT-15 colon,17.6 µM
same,TGI,HCT-15 colon,35.5 µM
same,GI50,CAKI-1 renal,43.4 µM
same,TGI,CAKI-1 renal,> 100 µM
same,GI50,UACC-62 melanoma,14.7 µM
same,TGI,UACC-62 melanoma,30.7 µM
same,GI50,RPMI-8226 leukemia,20.9 µM
same,TGI,RPMI-8226 leukemia,47.8 µM
same,GI50,HOP-62 NSCLC,23.3 µM
same,TGI,HOP-62 NSCLC,51.4 µM
same,GI50,SK-MEL-5 melanoma,22.2 µM
same,TGI,SK-MEL-5 melanoma,43.5 µM
same,GI50,RXF 393 renal,28.6 µM
same,TGI,RXF 393 renal,67.1 µM
same,GI50,BT-549 breast,17.7 µM
same,TGI,BT-549 breast,42.6 µM
same,GI50,HT29 colon,15.7 µM
same,TGI,HT29 colon,30.4 µM
same,GI50,CCRF-CEM leukemia,25 µM
same,TGI,CCRF-CEM leukemia,67.6 µM
same,GI50,OVCAR-8 ovarian,28.7 µM
same,TGI,OVCAR-8 ovarian,91.7 µM
same,GI50,MOLT-4 leukemia,22.4 µM
same,TGI,MOLT-4 leukemia,43 µM
same,GI50,LOX IMVI melanoma,23.5 µM
same,TGI,LOX IMVI melanoma,39.2 µM
same,GI50,M14 melanoma,22.6 µM
same,TGI,M14 melanoma,42.6 µM
same,GI50,A549 NSCLC,25 µM
same,TGI,A549 NSCLC,74.1 µM
same,GI50,UACC-257 melanoma,24.5 µM
same,TGI,UACC-257 melanoma,99.6 µM
same,GI50,KM12 colon,21.2 µM
same,TGI,KM12 colon,47.6 µM
same,GI50,K-562 leukemia,34.4 µM
same,TGI,K-562 leukemia,> 100 µM
same,GI50,SW-620 colon,30.5 µM
same,TGI,SW-620 colon,82.5 µM
same,GI50,NCI-H522 lung,37.4 µM
same,TGI,NCI-H522 lung,> 100 µM
same,GI50,UO-31 renal,46.9 µM
same,TGI,UO-31 renal,> 100 µM
same,GI50,U251 CNS,18.2 µM
same,TGI,U251 CNS,33.1 µM
COc1cc2c3c(n(CCCCNC(=O)OCC4c5ccccc5-c5ccccc54)c(=O)c2cc1OC)-c1cc2c(cc1C3=O)OCO2,GI50,SN12C renal,10.7 µM
same,TGI,SN12C renal,93 µM
same,GI50,COLO 205 colon,49.9 µM
same,TGI,COLO 205 colon,> 100 µM
same,GI50,SK-MEL-28 melanoma,> 100 µM
same,TGI,SK-MEL-28 melanoma,> 100 µM
same,GI50,NCI-H226 lung,31.1 µM
same,TGI,NCI-H226 lung,> 100 µM
same,GI50,NCI-H460 lung,2.56 µM
same,TGI,NCI-H460 lung,54.2 µM
same,GI50,SK-MEL-2 melanoma,70.4 µM
same,TGI,SK-MEL-2 melanoma,> 100 µM
same,GI50,OVCAR-4 ovarian,> 100 µM
same,TGI,OVCAR-4 ovarian,> 100 µM
same,GI50,EKVX NSCLC,87.2 µM
same,TGI,EKVX NSCLC,> 100 µM
same,GI50,SF-295 CNS,> 100 µM
same,TGI,SF-295 CNS,> 100 µM
same,GI50,786-0 renal,4.67 µM
same,TGI,786-0 renal,28.1 µM
same,GI50,SNB-19 CNS,81.6 µM
same,TGI,SNB-19 CNS,> 100 µM
same,GI50,A498 renal,> 100 µM
same,TGI,A498 renal,> 100 µM
same,GI50,MCF7 breast,0.554 µM
same,TGI,MCF7 breast,16.2 µM
same,GI50,MDA-MB-435,64.9 µM
same,TGI,MDA-MB-435,> 100 µM
same,GI50,SF-268 CNS,6.7 µM
same,TGI,SF-268 CNS,> 100 µM
same,GI50,OVCAR-3 ovarian,19.8 µM
same,TGI,OVCAR-3 ovarian,62.5 µM
same,GI50,TK-10 renal,56.3 µM
same,TGI,TK-10 renal,> 100 µM
same,GI50,T-47D breast,95.8 µM
same,TGI,T-47D breast,> 100 µM
same,GI50,PC-3 prostate,13.7 µM
same,TGI,PC-3 prostate,55.6 µM
same,GI50,SNB-75 CNS,28.9 µM
same,TGI,SNB-75 CNS,> 100 µM
same,GI50,ACHN renal,5.8 µM
same,TGI,ACHN renal,50.4 µM
same,GI50,HOP-92 NSCLC,1.49 µM
same,TGI,HOP-92 NSCLC,9.69 µM
same,GI50,IGROV1 ovarian,17.9 µM
same,TGI,IGROV1 ovarian,> 100 µM
same,GI50,MALME-3M melanoma,> 100 µM
same,TGI,MALME-3M melanoma,> 100 µM
same,GI50,HS 578T breast,80.7 µM
same,TGI,HS 578T breast,> 100 µM
same,GI50,MDA-MB-231 breast,26.5 µM
same,TGI,MDA-MB-231 breast,> 100 µM
same,GI50,HCT-15 colon,12.9 µM
same,TGI,HCT-15 colon,80.3 µM
same,GI50,CAKI-1 renal,5.3 µM
same,TGI,CAKI-1 renal,> 100 µM
same,GI50,UACC-62 melanoma,45.7 µM
same,TGI,UACC-62 melanoma,> 100 µM
same,GI50,HOP-62 NSCLC,5.62 µM
same,TGI,HOP-62 NSCLC,34 µM
same,GI50,SK-MEL-5 melanoma,23.4 µM
same,TGI,SK-MEL-5 melanoma,> 100 µM
same,GI50,RXF 393 renal,15.9 µM
same,TGI,RXF 393 renal,58.6 µM
same,GI50,SK-OV-3 ovarian,> 100 µM
same,TGI,SK-OV-3 ovarian,> 100 µM
same,GI50,NCI/ADR-RES ovarian,58.1 µM
same,TGI,NCI/ADR-RES ovarian,> 100 µM
same,GI50,BT-549 breast,79.1 µM
same,TGI,BT-549 breast,> 100 µM
same,GI50,HT29 colon,16.9 µM
same,TGI,HT29 colon,> 100 µM
same,GI50,CCRF-CEM leukemia,2.75 µM
same,TGI,CCRF-CEM leukemia,> 100 µM
same,GI50,OVCAR-5 ovarian,17.4 µM
same,TGI,OVCAR-5 ovarian,51 µM
same,GI50,OVCAR-8 ovarian,35 µM
same,TGI,OVCAR-8 ovarian,> 100 µM
same,GI50,MOLT-4 leukemia,0.281 µM
same,TGI,MOLT-4 leukemia,1.81 µM
same,GI50,LOX IMVI melanoma,7.08 µM
same,TGI,LOX IMVI melanoma,> 100 µM
same,GI50,M14 melanoma,25.9 µM
same,TGI,M14 melanoma,> 100 µM
same,GI50,HCT-116 colon,7.73 µM
same,TGI,HCT-116 colon,33.6 µM
same,GI50,NCI-H23 lung,26.4 µM
same,TGI,NCI-H23 lung,> 100 µM
same,GI50,HCC-2998 colon,14.9 µM
same,TGI,HCC-2998 colon,> 100 µM
same,GI50,A549 NSCLC,17.4 µM
same,TGI,A549 NSCLC,> 100 µM
same,GI50,UACC-257 melanoma,> 100 µM
same,TGI,UACC-257 melanoma,> 100 µM
same,GI50,KM12 colon,22 µM
same,TGI,KM12 colon,> 100 µM
same,GI50,SF-539 CNS,6.42 µM
same,TGI,SF-539 CNS,37.6 µM
same,GI50,K-562 leukemia,3.05 µM
same,TGI,K-562 leukemia,27.4 µM
same,GI50,SW-620 colon,7.75 µM
same,TGI,SW-620 colon,> 100 µM
same,GI50,DU-145 prostate,8.04 µM
same,TGI,DU-145 prostate,> 100 µM
same,GI50,NCI-H522 lung,11.1 µM
same,TGI,NCI-H522 lung,> 100 µM
same,GI50,UO-31 renal,49.3 µM
same,TGI,UO-31 renal,> 100 µM
same,GI50,U251 CNS,11.2 µM
same,TGI,U251 CNS,65.3 µM
